Source: patent publication US20020183340A1, “4-(4'-HYDROXYPHENYL) AMINO-6,7-DIMETHOXYQUINAZOLINE TO PREVENT DEVELOPMENT OF COLORECTAL CANCER” (Parker Hughes Institute, priority 1999, published 2002)

Test system: APC^min mouse model
Assay: APC^min mouse model of colorectal cancer development (chow supplemented with compound)
Assay type: in vivo, mice
Conditions: for Probability Of Survival: APC^min mice fed chow with 0.3 wt % compound once a week from six weeks of age, n = 23
Description: An APC^min mouse model was used to test the ability of 4-(4′-hydroxyphenyl)-amino-6,7-dimethoxyquinazoline to prevent the development of colorectal cancer. A total of 23 APC^min mice were fed rodent chow, which was supplemented with 0.3 wt % 4-(4′-hydroxyphenyl)-amino-6,7-dimethoxyquinazoline once a week starting at six weeks of age. A control group of 30 mice were fed rodent chow without 4-(4′-hydroxyphenyl)-amino-6,7-dimethoxyquinazoline. The health status of the mice was monitored for thirty weeks. Table 1 below describes the Probability of Survival for each group of mice over a period of 210 days.

COc1cc2ncnc(Nc3ccc(O)cc3)c2cc1OC [4-(4′-hydroxyphenyl)-amino-6,7-dimethoxyquinazoline]
Probability Of Survival (age 90 days): 100 ± 0 | Probability Of Survival (age 120 days): 94 ± 5 | Probability Of Survival (age 150 days): 81 ± 10 | Probability Of Survival (age 180 days): 68 ± 12 | Probability Of Survival (age 210 days): 68 ± 12 | mice still alive (by thirty weeks of age, mice fed compound (17% of the control mice)): 68%
